# Experimental data: ChEMBL document CHEMBL1201862, “PubChem BioAssay data set” (2004)
# Active and inactive are the calls of the source.
# Columns and labels:
# [1] = CellTiter-Glo luminescence survival assay, SW480 colon tumor line, concentration-response curve, half-maximal inhibitory concentration (AID 1117338); assay type: functional
# [2] = RKO cell viability reduction, dose response, CellTiter-Glo luminescence (AID 1117322); assay type: functional
# [3] = cytotoxicity toward HCT116 cells – cell-based, CellTiter-Glo luminescence, IC50, dose response (AID 1117332); assay type: functional; conditions: HCT-116
# [4] = SNU-C1 cell viability reduction, dose response, CellTiter-Glo luminescence (AID 1117323); assay type: functional, cell-based
# [5] = cytotoxicity toward Colo320 cells – cell-based, CellTiter-Glo luminescence, IC50, dose response (AID 1117334); assay type: functional; conditions: COLO 320
# [6] = cytotoxicity toward HT-29 cells – cell-based, CellTiter-Glo luminescence, IC50, dose response (AID 1117330); assay type: functional
# [7] = Reduced DLD-1 viability, concentration-response, CellTiter-Glo luminescence (AID 1117352); assay type: functional
# [8] = molecular target: T1, RNA-binding protein pos-1 (Caenorhabditis elegans, UniProt G5EF15); assay: disruptors of C. elegans POS-1 RNA interaction – biochemical, fluorescence polarization, dose response (AID 1964);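 also: purified POS-1 fused to maltose binding protein made in E. coli; potency of compounds blocking POS-1 binding to fluorescent RNA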
# T1 sequence (G5EF15 whole entry): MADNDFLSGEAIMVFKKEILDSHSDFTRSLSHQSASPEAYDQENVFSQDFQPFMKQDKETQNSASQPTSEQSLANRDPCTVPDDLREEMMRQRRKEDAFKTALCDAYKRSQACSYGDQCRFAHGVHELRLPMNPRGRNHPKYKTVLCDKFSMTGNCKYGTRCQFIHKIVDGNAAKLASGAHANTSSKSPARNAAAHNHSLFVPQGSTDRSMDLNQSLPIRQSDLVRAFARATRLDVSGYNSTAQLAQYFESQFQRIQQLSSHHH
# [9] = molecular target: T2, Zinc finger protein mex-5 (Caenorhabditis elegans, UniProt Q9XUB2); assay: potency of MEX-5 RNA-binding blockers – biochemical, C. elegans, fluorescence polarization, dose response (AID 1960)
# T2 sequence (Q9XUB2 whole entry): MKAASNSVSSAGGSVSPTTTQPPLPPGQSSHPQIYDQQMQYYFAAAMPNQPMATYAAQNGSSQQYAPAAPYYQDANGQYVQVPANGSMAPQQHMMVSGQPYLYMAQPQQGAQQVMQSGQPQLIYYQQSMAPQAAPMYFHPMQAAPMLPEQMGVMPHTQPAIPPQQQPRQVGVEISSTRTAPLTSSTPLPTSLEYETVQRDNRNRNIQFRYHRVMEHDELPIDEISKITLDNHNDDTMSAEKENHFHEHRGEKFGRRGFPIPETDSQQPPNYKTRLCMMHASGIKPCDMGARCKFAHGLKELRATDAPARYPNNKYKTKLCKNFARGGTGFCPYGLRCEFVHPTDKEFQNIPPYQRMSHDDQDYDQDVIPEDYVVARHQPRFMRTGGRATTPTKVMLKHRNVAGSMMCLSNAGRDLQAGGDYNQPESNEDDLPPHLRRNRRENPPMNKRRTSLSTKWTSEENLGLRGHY
# [10] = molecular target: Ephrin type-A receptor 4 (Mus musculus, UniProt Q03137); assay: EphA4 ligand-binding antagonists – biochemical, colorimetric, mouse EphA4, primary screen (AID 689); assay type: functional
# Chain of Ephrin type-A receptor 4 (Q03137 whole entry, the tested form may be a part): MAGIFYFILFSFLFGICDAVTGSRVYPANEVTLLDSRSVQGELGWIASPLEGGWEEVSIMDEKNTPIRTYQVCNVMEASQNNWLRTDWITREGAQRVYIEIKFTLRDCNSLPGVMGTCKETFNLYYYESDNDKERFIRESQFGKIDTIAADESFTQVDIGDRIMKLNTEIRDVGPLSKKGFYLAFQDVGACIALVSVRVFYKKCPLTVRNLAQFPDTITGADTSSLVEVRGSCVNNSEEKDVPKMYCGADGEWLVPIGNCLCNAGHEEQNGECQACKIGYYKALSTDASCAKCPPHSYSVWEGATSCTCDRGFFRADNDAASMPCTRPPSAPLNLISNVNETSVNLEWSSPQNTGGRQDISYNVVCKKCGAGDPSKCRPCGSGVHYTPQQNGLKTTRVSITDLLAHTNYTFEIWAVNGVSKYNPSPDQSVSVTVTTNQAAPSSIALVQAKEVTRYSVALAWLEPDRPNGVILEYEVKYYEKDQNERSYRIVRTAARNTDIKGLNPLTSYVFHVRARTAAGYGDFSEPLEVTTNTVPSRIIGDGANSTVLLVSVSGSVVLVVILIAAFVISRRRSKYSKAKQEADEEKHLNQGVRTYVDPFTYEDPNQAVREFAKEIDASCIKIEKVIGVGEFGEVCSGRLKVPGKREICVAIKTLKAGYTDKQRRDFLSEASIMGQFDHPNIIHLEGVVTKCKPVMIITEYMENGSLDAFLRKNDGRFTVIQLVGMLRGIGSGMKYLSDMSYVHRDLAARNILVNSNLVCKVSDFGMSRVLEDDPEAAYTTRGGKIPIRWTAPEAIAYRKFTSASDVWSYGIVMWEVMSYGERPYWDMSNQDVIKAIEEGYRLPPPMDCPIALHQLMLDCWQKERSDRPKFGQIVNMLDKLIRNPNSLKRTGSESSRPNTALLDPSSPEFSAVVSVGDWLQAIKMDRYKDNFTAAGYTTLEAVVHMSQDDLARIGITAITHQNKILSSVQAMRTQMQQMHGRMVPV
# [11] = system: CHO; assay: CHO cell viability loss, potency – luminescence, cytotoxicity control for TLR9-MyD88 binding inhibitor project, dose response (AID 588339); assay type: functional, cell-based, hamster; conditions: Cricetulus griseus;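 also: CHO cells stably coexpressing TLR9 and MyD88 fusions from primary screen; compound exposure lasted 48 hours before viability readout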
# [12] = molecular target: Beta Lactamase (Pseudomonas aeruginosa, UniProt Q932Y6); assay: BLA reporter interference, concentration series – BLA reporter cells, FRET fluorescence, artefact control for TLR9-MyD88 binding inhibitor project, dose response (AID 588341); assay type: cell-based;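 also: cell based assay in CHO-K1 cells stably expressing beta-lactamase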
# Chain of Beta Lactamase (Q932Y6 whole entry): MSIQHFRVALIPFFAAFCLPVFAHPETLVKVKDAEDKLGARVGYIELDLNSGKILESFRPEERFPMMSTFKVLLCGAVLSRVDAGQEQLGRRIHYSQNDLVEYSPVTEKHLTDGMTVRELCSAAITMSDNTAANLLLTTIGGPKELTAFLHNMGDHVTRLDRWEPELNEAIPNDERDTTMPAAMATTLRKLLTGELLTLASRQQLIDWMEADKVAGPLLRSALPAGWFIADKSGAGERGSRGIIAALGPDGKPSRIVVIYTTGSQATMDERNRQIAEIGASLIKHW
# [13] = molecular target: Aryl hydrocarbon receptor (Homo sapiens, UniProt P35869); assay: Luminescence-based cell-based high throughput dose response assay for activators of the Aryl Hydrocarbon Receptor (AHR). [Related pubchem assays: 2796 (Primary screen (AHR activators in singlicate)), 2845 (Confirmation screen (AHR activators in triplicate)), 434939 (Counterscreen (PXR activators in triplicate)), 2804 (Summary (AHR activators))]; assay type: ADME
# Chain of Aryl hydrocarbon receptor (P35869 whole entry): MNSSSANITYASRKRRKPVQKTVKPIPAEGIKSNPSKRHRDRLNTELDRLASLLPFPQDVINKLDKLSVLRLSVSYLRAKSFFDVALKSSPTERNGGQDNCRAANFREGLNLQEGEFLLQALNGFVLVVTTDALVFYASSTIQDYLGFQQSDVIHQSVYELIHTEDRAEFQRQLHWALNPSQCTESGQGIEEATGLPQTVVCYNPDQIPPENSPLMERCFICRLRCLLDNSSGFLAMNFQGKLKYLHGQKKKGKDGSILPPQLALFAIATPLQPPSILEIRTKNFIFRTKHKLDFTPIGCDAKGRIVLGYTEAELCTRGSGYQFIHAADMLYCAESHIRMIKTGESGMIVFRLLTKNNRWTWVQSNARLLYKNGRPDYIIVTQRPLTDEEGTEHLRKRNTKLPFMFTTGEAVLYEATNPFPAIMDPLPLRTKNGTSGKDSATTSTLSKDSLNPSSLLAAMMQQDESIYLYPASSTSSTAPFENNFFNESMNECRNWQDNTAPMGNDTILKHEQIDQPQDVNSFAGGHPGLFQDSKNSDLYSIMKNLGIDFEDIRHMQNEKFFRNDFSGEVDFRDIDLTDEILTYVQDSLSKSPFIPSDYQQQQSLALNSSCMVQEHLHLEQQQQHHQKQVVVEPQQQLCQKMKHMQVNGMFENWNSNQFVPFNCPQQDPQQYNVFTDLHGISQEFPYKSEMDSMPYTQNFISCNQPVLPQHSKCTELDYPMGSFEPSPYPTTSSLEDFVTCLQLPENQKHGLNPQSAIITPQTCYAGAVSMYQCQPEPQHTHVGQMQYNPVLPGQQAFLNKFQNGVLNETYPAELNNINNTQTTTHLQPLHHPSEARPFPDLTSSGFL
# [14] = growth inhibition of yeast DHODH-expressing 3D7 parasites – SYBR Green, dry powder samples, dose response (AID 1159570); assay type: functional, cell-based;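 also: parasite growth measured after 72 hours of compound exposure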
# [15] = P. falciparum Dd2 growth inhibitors, dose response, SYBR Green, cherry-picked samples (AID 1159567); assay type: functional, cell-based
# [16] = Dd2 malaria parasite growth inhibition potency – SYBR Green, dry powder samples, dose response (AID 1159566); assay type: functional, cell-based;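 also: potency for growth inhibition with lower SYBR green DNA signal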
# [17] = growth inhibition of PfATP4-mutant resistant parasites – NITD609-resistant line, SYBR Green, dry powder, dose response (AID 1159571); assay type: functional, cell-based;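 also: parasites synchronized at ring stage by sorbitol before testing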
# [18] = Luminescence-based cell-based high throughput dose response assay to identify activators of the DAF-12 from the parasite S. stercoralis (ssDAF-12).; assay type: functional
# [19] = molecular target: T3, Oxysterols receptor LXR-beta (Homo sapiens, UniProt P55055); assay: LXR agonists, Gal4 luciferase reporter, dose response, counter-screen for ssDAF-12 agonist project, cell-based, luminescence, HEK293, S. stercoralis campaign (AID 720737); assay type: functional; conditions: read-out: IC50 (the source's name)
# T3 sequence (P55055 whole entry): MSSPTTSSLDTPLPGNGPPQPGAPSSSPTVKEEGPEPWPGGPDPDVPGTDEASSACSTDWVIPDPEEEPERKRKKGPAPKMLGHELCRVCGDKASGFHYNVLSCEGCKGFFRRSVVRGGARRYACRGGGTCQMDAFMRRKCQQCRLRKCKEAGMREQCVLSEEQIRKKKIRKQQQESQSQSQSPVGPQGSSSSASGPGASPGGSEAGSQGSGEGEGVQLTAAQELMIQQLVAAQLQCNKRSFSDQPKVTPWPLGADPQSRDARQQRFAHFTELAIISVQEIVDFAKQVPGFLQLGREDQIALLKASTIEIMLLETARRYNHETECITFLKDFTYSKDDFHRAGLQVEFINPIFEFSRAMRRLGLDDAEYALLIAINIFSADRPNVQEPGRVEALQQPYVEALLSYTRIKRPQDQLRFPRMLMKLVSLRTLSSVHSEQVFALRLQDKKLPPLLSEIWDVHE
# [20] = molecular target: T4, Cytochrome P450 2C19 (Homo sapiens, UniProt P33261); assay: qHTS Assay for Inhibitors and Substrates of Cytochrome P450 2C19. [Related pubchem assays: 410 ]; assay type: ADME; conditions: read-out: Potency
# T4 sequence (P33261 whole entry): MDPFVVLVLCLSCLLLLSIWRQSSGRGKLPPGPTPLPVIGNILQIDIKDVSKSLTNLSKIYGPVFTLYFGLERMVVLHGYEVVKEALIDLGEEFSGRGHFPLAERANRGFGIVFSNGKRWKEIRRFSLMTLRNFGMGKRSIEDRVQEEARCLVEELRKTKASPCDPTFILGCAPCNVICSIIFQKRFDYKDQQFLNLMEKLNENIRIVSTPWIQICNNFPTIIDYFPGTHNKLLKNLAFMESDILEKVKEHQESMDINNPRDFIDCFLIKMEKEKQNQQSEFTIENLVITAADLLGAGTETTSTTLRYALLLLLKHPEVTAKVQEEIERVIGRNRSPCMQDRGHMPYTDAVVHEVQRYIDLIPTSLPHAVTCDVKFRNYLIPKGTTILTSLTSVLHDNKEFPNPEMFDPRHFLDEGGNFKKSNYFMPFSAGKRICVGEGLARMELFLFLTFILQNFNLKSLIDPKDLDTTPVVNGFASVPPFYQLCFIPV
# [21] = molecular target: T4, Cytochrome P450 2C19; assay: Cytochrome panel assay with activity outcomes. Panel member name: p450-cyp2c19 Compounds with AC50 equal or less than 10 uM are considered active; assay type: functional; conditions: read-out: AC50
# [22] = molecular target: Cytochrome P450 2C9 (Homo sapiens, UniProt P11712)
# Chain of Cytochrome P450 2C9 (P11712 whole entry): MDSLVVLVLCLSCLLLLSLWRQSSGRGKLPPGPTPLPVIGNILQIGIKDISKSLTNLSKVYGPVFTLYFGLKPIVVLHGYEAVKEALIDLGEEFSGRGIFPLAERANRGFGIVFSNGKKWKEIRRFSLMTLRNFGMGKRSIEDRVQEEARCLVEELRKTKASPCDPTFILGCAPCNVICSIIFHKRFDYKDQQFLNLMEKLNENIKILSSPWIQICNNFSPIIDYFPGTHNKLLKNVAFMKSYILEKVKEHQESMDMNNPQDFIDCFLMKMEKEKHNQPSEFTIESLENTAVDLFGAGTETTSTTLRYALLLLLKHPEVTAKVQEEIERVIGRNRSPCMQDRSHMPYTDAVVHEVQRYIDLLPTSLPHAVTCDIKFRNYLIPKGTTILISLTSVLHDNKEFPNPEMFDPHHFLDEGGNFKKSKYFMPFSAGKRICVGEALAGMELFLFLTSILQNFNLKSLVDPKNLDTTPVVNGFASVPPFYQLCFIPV
# [23] = HIV-1 Vif–A3G interaction blockers – biochemical, TR-FRET, GST-Vif 1-94, biotin-A3G peptide, dose response retest, primary screen (AID 1117319); assay type: functional;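 also: TR-FRET signal of purified GST-Vif binding a biotinylated A3G peptide; inhibitors lower the FRET signal by blocking Vif and A3G binding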
# [24] = molecular target: Protein Tat (Human immunodeficiency virus type 1 group M subtype B (isolate HXB2)(HIV-1), UniProt P04608); assay type: functional;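 also: tat binding to TAR RNA read out by fluorescence polarization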
# Chain of Protein Tat (P04608 whole entry): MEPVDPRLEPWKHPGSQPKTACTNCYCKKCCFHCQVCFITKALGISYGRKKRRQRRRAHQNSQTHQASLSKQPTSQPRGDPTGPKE
# [25] = viability loss in THP-1 monocytes – THP-1 cells, cytotoxicity control for Vif-APOBEC3G degradation inhibitor project, dose response (AID 1117359); assay type: functional; conditions: THP-1
# [26] = molecular target: T5, Heat shock factor protein 1 (Mus musculus, UniProt P38532); assay: decrease of HSF1-responsive luciferase luminescence – cell-based, NIH3T3, dose retest, confirmation (AID 2382); assay type: functional;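 also: NIH3T3 fibroblasts with HSF1-driven luciferase reporter stressed by proteasome inhibitor MG132; luminescence from HSF1-driven luciferase expression after 8 hours of MG132 stress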
# T5 sequence (P38532 whole entry): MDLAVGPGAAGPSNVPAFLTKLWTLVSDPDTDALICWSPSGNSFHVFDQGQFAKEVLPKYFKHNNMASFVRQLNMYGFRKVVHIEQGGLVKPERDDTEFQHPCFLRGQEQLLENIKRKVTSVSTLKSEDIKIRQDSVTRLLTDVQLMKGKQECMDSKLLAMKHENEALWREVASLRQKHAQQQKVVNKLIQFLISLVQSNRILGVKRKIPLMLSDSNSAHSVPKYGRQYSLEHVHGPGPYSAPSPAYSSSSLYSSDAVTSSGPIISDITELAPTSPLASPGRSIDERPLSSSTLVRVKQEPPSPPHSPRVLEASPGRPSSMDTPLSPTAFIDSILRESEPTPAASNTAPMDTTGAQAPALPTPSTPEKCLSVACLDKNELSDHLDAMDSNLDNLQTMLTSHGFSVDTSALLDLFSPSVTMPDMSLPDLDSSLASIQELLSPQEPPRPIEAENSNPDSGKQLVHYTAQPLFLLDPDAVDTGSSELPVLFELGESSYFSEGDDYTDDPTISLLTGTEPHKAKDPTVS
# [27] = molecular target: T6, Microphthalmia-associated transcription factor (Homo sapiens, UniProt O75030); assay: reducers of TRPM1 reporter luminescence, concentration series – cell-based, SK-MEL-5, cherry-picked, set 3, MITF inhibitor project, dose response (AID 493073); assay type: functional;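 also: SK-MEL-5 melanoma cells with luciferase driven by the MITF target TRPM1 promoter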
# T6 sequence (O75030 whole entry): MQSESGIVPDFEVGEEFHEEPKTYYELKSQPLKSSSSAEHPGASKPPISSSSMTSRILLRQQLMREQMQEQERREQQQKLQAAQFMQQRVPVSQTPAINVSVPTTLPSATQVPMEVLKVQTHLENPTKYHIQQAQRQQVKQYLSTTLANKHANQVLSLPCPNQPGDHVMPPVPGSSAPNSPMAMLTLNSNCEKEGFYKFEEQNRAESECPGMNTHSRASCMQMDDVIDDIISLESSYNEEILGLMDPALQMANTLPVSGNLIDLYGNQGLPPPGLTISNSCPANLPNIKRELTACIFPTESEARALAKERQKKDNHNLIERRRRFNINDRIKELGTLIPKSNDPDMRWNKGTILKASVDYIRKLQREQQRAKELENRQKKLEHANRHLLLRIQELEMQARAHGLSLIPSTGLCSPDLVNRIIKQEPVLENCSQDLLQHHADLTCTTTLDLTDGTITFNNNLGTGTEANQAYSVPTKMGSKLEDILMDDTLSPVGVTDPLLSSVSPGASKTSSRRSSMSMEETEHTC
# [28] = blockers of HIV-1 envelope-mediated cell-cell fusion – cherry-pick, dose response (AID 652057); assay type: functional, cell-based
# [29] = viability loss in CEM21 cells – cell-based, CellTiter-Glo luminescence, cherry-picked, cytotoxicity control for viral fusion inhibitor project, dose response (AID 652042); assay type: functional;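 also: potency for signal decrease meaning cytotoxicity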
# [30] = blockers of HIV-1 ZM109 envelope-driven cell-cell fusion – HeLa effector, CEM target cells, luciferase, cherry-pick, dose response (AID 652058); assay type: functional, cell-based;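 also: luciferase signal from HIV-1 Env mediated cell-cell fusion of effector and target cells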
# [31] = off-target signal loss in HeLa-CEM21 co-culture – HeLa F-luc CTL cells, cherry-picked, counter-screen for HIV-1 Env fusion inhibitor project, dose response (AID 652040); assay type: functional, cell-based;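 also: potency for signal decrease marking cytotoxic or nonspecific inhibition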
# [32] = HIV-1 AD8 envelope cell-cell fusion blockers – cherry-pick, dose response (AID 652062); assay type: functional, cell-based;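 also: luciferase signal from cell-cell fusion driven by HIV-1 clade B AD8 Env; potency is for inhibitors of fusion seen as a drop in luminescence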
structure (smiles),measurement,setting,value
OC[C@@H](O)[C@H](O)[C@H](O)[C@@H](O)CO [GALACTITOL],IC50,[1],> 20 µM (inactive)
same,IC50,[2],> 20 µM (inactive)
same,IC50,[3],> 20 µM (inactive)
same,IC50,[4],> 20 µM (inactive)
same,IC50,[5],> 20 µM (inactive)
same,IC50,[6],> 20 µM (inactive)
same,IC50,[7],> 20 µM (inactive)
CN(C)c1ccc(/C=C/C(=O)c2cccc(Br)c2)cc1,EC50,[8],> 300 µM (not active)
same,EC50,[9],> 300 µM (inconclusive)
same,IC50,[10],> 100 µM (not active)
same,IC50,[11],> 49.7 µM (inactive)
same,IC50,[12],5.6 µM (active)
O=S(=O)(NNc1ncc(C(F)(F)F)cc1Cl)c1ccc(F)cc1F,EC50,[13],3.38 µM (active)
O=C(Cc1ccccc1)N1CC(=O)N2[C@H](CO)[C@H](c3ccc(C#Cc4ccccc4)cc3)[C@H]2C1,AC50,[14],0.0554 µM (active)
same,AC50,[15],< 0.3 µM (active)
same,AC50,[16],0.0291 µM (active)
same,AC50,[17],0.0288 µM (active)
CC1CCCCN1CCNC(=O)CC1Oc2ccccc2NC1=O (stereo not given),IC50,[18],> 67.5 µM (inactive)
same,EC50,[19],> 67.5 µM (inactive)
"O=C(C1CCCCC1)N1CC(=O)N2CCc3ccccc3[C@@H]2C1 [PRAZIQUANTEL, (R)-]",AC50,[20],25.1 µM (inconclusive)
same,AC50,[21],5.01 µM (inconclusive)
same,AC50,[22],inconclusive
COc1cc2c(cc1OC)-c1c(O)c(OC)cc3c1[C@@H](C2)N(C)CC3,AC50,[20],25.1 µM (inconclusive)
Cc1c(-c2cc[nH]n2)cc(NC(=O)c2ccc(Cl)cc2)c(=O)n1N,EC50,[13],1.17 µM (active)
COc1cc(C(=O)Nc2cccc(-c3nc4ncccc4o3)c2C)cc(OC)c1OC,IC50,[23],> 100 µM (active)
Cc1ccc(CNC(=O)CN2CCC(C(N)=O)CC2)cc1,IC50,[10],> 100 µM (not active)
FC(F)(F)c1cc(-c2ccco2)nc(NCc2cccnc2)n1,IC50,[24],> 100 µM (active)
COc1ccc(NC(=O)NC(C)C2CC3CCC2C3)cc1 (stereo not given),IC50,[18],> 67.5 µM (inactive)
same,EC50,[19],> 67.5 µM (inactive)
Cc1cc(C)cc(NC2=CC(=O)CC(c3ccco3)C2)c1 (stereo not given),CC50,[25],25.1 µM (active)
same,IC50,[23],> 60.7 µM (active)
CN(c1ccc2nc3ccccc3c(=O)n2n1)C1CCCCC1,EC50,[26],< 0.16 µM (active)
same,AC50,[27],1.29 µM (active)
same,AC50,[28],2.13 µM (active)
same,AC50,[29],26.9 µM (active)
same,AC50,[30],31.1 µM (active)
same,AC50,[31],6.41 µM (active)
same,AC50,[32],6.5 µM (active)
same,IC50,[24],> 100 µM (active)
same,CC50,[25],36.6 µM (active)
